Where “and” joins values, the source holds several entries; their conditions need not be identical. Identical values can stand only once.
Experiment: Accelerated and long term stability study of TTI-101 (Batch A, Batch B): HPLC assay, purity, impurities and water content after storage at 5° C., 25° C./60% RH, 30° C./65% RH or 40° C./75% RH
Assay type: physicochemical
Parameters: key to Impurity RRT 1.05: NQ: ≥0.02% and <0.05%; —: no peak
Protocol: Exemplary HPLC conditions: diluent was 0.1% trifluoroacetic acid (TFA) in acetonitrile, Mobile Phase A was 0.05% TFA in water, and Mobile Phase B was 0.05% TFA in acetonitrile, column (Agilent, Eclipse XDB-C18, 3.0×100 mm, particle size 1.8 μm), flow (0.425 mL/min), and detector (280 nm diode array).
Batch A was prepared analogously using Method 3 as described in Example 1. Batch B was prepared according to Method 5 as described in Example 1.
Samples of TTI-101 were stored at 5° C., 25° C./60% RH, 30° C./65% RH, or 40° C./75% RH. TTI-101 was stored in an LDPE bag enclosed with a Nylon cable tie and then transferred to another LDPE bag and enclosed with a Nylon cable tie. The enclosure was put into an HDPE bottle and closed with a polyethylene-lined polypropylene cap. The samples were stored under the above-identified conditions.
The samples were analyzed using HPLC with the exemplary conditions identified above. Relative retention time (RRT) for Compound 5 was about 0.83, Compound 4 was about 1.05-1.06, Compound 6 was about 1.15-1.17, and compound of formula (IV) was about 0.99.
• NA not applicable • NQ ≥0.02% and <0.05% • Avg average • Cmpd compound • — no peak • M month • RRT relative retention time

[1] = Storage 5° C., 4.5 M (25° C./60% RH) + 1.5 M (5° C.), Avg
[2] = Storage 5° C., 4.5 M (25° C./60% RH) + 1.5 M (5° C.), Prep P1-P2
[3] = Storage 5° C., 4.5 M (25° C./60% RH) + 1.5 M (5° C.), Prep P1-P2, listed as Batch B
[4] = Storage 5° C., 9 M, Prep P1-P2, listed as Batch B
[5] = Storage 25° C./60% RH, 0 M, Avg
[6] = Storage 25° C./60% RH, 0 M, Prep P1-P5
[7] = Storage 25° C./60% RH, 0 M, Prep P1-P5, listed as Batch B
[8] = Storage 25° C./60% RH, 1 M, Avg
[9] = Storage 25° C./60% RH, 1 M, Prep P1-P2
[10] = Storage 25° C./60% RH, 3 M, Avg
[11] = Storage 25° C./60% RH, 3 M, Prep P1-P2
[12] = Storage 25° C./60% RH, 3 M, Prep P1-P2, listed as Batch B
[13] = Storage 25° C./60% RH, 6 M, Avg
[14] = Storage 25° C./60% RH, 6 M, Prep P1-P2

Water Content (Storage 5° C., 0 M, Avg): 0.1% | Water Content (Storage 5° C., 0 M, Prep P1-P2): 0.1% | Impurities Total (Storage 5° C., 0 M, Prep P1-P5): 0.1 area % | Impurity RRT 0.86 (Storage 5° C., 0 M, Prep P1-P5): NQ (≥0.02% and <0.05%) | Impurity RRT 0.99 (Storage 5° C., 0 M, Prep P1-P5): NQ (≥0.02% and <0.05%) | Purity (Storage 5° C., 0 M, Prep P1-P5): 99.8% | Impurity RRT 1.16 (Cmp 6) (Storage 5° C., 0 M, Prep P1-P5, listed as Batch B): 0.08 area % and 0.07 area % | Impurities Total [1]: 0.3 area % | Impurity RRT 0.80 [1]: NQ (≥0.02% and <0.05%) | Impurity RRT 0.84 [1]: NQ (≥0.02% and <0.05%) | Impurity RRT 0.87 [1]: NQ (≥0.02% and <0.05%) | Impurity RRT 0.99 [1]: 0.05 area % | Impurity RRT 1.02 [1]: NQ (≥0.02% and <0.05%) | Impurity RRT 1.05 [1]: NQ (≥0.02% and <0.05%) | Impurity RRT 1.06 (Cmpd 4) [1]: NQ (≥0.02% and <0.05%) | Impurity RRT 1.17 (Cmp 6) [1]: 0.26 area % | Impurity RRT 1.39 [1]: NQ (≥0.02% and <0.05%) | Purity [1]: 99.6% | Water Content [1]: <0.04% | Impurity RRT 0.84 [2]: NQ (≥0.02% and <0.05%) | Impurity RRT 0.87 [2]: NQ (≥0.02% and <0.05%) | Impurity RRT 1.02 [2]: NQ (≥0.02% and <0.05%) | Impurity RRT 1.06 (Cmpd 4) [2]: NQ (≥0.02% and <0.05%) | Impurity RRT 1.39 [2]: NQ (≥0.02% and <0.05%) | Water Content [2]: <0.04% | Impurities Total [3]: 0.2 area % and 0.3 area % | Impurity RRT 1.17 (Cmp 6) [3]: 0.25 area % and 0.27 area % | Purity [3]: 99.6% and 99.5% | Assay (Storage 5° C., 9 M, Avg): 99.1% | Impurities Total (Storage 5° C., 9 M, Avg): 0.3 area % | Impurity RRT 0.84 (Storage 5° C., 9 M, Avg): NQ (≥0.02% and <0.05%) | Impurity RRT 0.87 (Storage 5° C., 9 M, Avg): NQ (≥0.02% and <0.05%) | Impurity RRT 0.99 (Storage 5° C., 9 M, Avg): 0.11 area % | Impurity RRT 1.02 (Storage 5° C., 9 M, Avg): NQ (≥0.02% and <0.05%) | Impurity RRT 1.16 (Cmp 6) (Storage 5° C., 9 M, Avg): 0.18 area % | Impurity RRT 1.39 (Storage 5° C., 9 M, Avg): NQ (≥0.02% and <0.05%) | Impurity RRT 1.47 (Storage 5° C., 9 M, Avg): NQ (≥0.02% and <0.05%) | Purity (Storage 5° C., 9 M, Avg): 99.6% | Water Content (Storage 5° C., 9 M, Avg): 0.05% | Impurities Total (Storage 5° C., 9 M, Prep P1-P2): 0.3 area % | Impurity RRT 0.87 (Storage 5° C., 9 M, Prep P1-P2): NQ (≥0.02% and <0.05%) | Impurity RRT 0.99 (Storage 5° C., 9 M, Prep P1-P2): 0.11 area % | Impurity RRT 1.02 (Storage 5° C., 9 M, Prep P1-P2): NQ (≥0.02% and <0.05%) | Impurity RRT 1.39 (Storage 5° C., 9 M, Prep P1-P2): NQ (≥0.02% and <0.05%) | Purity (Storage 5° C., 9 M, Prep P1-P2): 99.6% | Assay [4]: 98.7% and 99.4% | Impurity RRT 1.16 (Cmp 6) [4]: 0.18 area % and 0.17 area % | Water Content [4]: 0.1% and 0.05% | Assay [5]: 99.4% | Impurities Total [5]: 0.1 area % | Impurity RRT 0.61 [5]: 0.05 area % | Impurity RRT 0.86 [5]: NQ (≥0.02% and <0.05%) | Impurity RRT 0.88 [5]: NQ (≥0.02% and <0.05%) | Impurity RRT 0.99 [5]: NQ (≥0.02% and <0.05%) | Impurity RRT 1.16 (Cmp 6) [5]: 0.07 area % | Purity [5]: 99.8% | Water Content [5]: 0.1% | Water Content (Storage 25° C./60% RH, 0 M, Prep P1-P2): 0.1% | Impurities Total [6]: 0.1 area % | Impurity RRT 0.86 [6]: NQ (≥0.02% and <0.05%) | Impurity RRT 0.99 [6]: NQ (≥0.02% and <0.05%) | Purity [6]: 99.8% | Impurity RRT 1.16 (Cmp 6) [7]: 0.08 area % and 0.07 area % | Impurities Total [8]: 0.5 area % | Impurity RRT 0.80 [8]: NQ (≥0.02% and <0.05%) | Impurity RRT 0.84 [8]: NQ (≥0.02% and <0.05%) | Impurity RRT 0.87 [8]: NQ (≥0.02% and <0.05%) | Impurity RRT 0.99 [8]: 0.10 area % | Impurity RRT 1.02 [8]: NQ (≥0.02% and <0.05%) | Impurity RRT 1.05 [8]: NQ (≥0.02% and <0.05%) | Impurity RRT 1.06 (Cmpd 4) [8]: NQ (≥0.02% and <0.05%) | Impurity RRT 1.17 (Cmp 6) [8]: 0.39 area % | Purity [8]: 99.4% | Water Content [8]: 0.1% | Impurities Total [9]: 0.5 area % | Impurity RRT 0.80 [9]: NQ (≥0.02% and <0.05%) | Impurity RRT 0.84 [9]: NQ (≥0.02% and <0.05%) | Impurity RRT 0.87 [9]: NQ (≥0.02% and <0.05%) | Impurity RRT 0.99 [9]: 0.10 area % | Impurity RRT 1.02 [9]: NQ (≥0.02% and <0.05%) | Impurity RRT 1.17 (Cmp 6) [9]: 0.39 area % | Purity [9]: 99.4% | Water Content [9]: 0.1% | Assay (Storage 25° C./60% RH, 1 M, Prep P1-P2, listed as Batch B): 99.0% and 99.2% | Assay [10]: 97.8% | Impurities Total [10]: 0.4 area % | Impurity RRT 0.48 [10]: NQ (≥0.02% and <0.05%) | Impurity RRT 0.80 [10]: NQ (≥0.02% and <0.05%) | Impurity RRT 0.84 [10]: NQ (≥0.02% and <0.05%) | Impurity RRT 0.87 [10]: NQ (≥0.02% and <0.05%) | Impurity RRT 0.99 [10]: 0.09 area % | Impurity RRT 1.02 [10]: NQ (≥0.02% and <0.05%) | Impurity RRT 1.05 [10]: — | Impurity RRT 1.06 (Cmpd 4) [10]: NQ (≥0.02% and <0.05%) | Impurity RRT 1.17 (Cmp 6) [10]: 0.33 area % | Purity [10]: 99.4% | Water Content [10]: 0.04% | Impurities Total [11]: 0.4 area % | Impurity RRT 0.80 [11]: NQ (≥0.02% and <0.05%) | Impurity RRT 0.84 [11]: NQ (≥0.02% and <0.05%) | Impurity RRT 0.87 [11]: NQ (≥0.02% and <0.05%) | Impurity RRT 0.99 [11]: 0.09 area % | Impurity RRT 1.02 [11]: NQ (≥0.02% and <0.05%) | Impurity RRT 1.05 [11]: — | Impurity RRT 1.17 (Cmp 6) [11]: 0.33 area % | Water Content [11]: 0.04% | Assay [12]: 96.8% and 98.8% | Purity [12]: 99.4% and 99.5% | Assay [13]: 98.7% | Impurities Total [13]: 0.3 area % | Impurity RRT 0.80 [13]: NQ (≥0.02% and <0.05%) | Impurity RRT 0.84 [13]: NQ (≥0.02% and <0.05%) | Impurity RRT 0.87 [13]: NQ (≥0.02% and <0.05%) | Impurity RRT 0.99 [13]: 0.05 area % | Impurity RRT 1.02 [13]: 0.05 area % | Impurity RRT 1.05 [13]: NQ (≥0.02% and <0.05%) | Impurity RRT 1.06 (Cmpd 4) [13]: NQ (≥0.02% and <0.05%) | Impurity RRT 1.17 (Cmp 6) [13]: 0.24 area % | Impurity RRT 1.39 [13]: NQ (≥0.02% and <0.05%) | Purity [13]: 99.5% | Water Content [13]: <0.04% | Impurities Total [14]: 0.3 area % | Impurity RRT 0.80 [14]: NQ (≥0.02% and <0.05%)
Structure (SMILES): COc1ccc(S(=O)(=O)Nc2cc(-c3c(O)ccc4ccccc34)c(O)c3ccccc23)cc1 [TTI-101]
Assay [7]: 99.0% and 100.5% and 99.3% and 99.5% and 98.8%

— patent publication US20240033234A1, “THERAPEUTIC COMPOUNDS, FORMULATIONS, AND USE THEREOF” (Tvardi Therapeutics, Inc., priority 2022, published 2024)
